Assay results taken from patent US6784184B2, “5-(arylsulfonyl)-,5-(arylsulfinyl), and 5-(arylsulfanyl)-thiazolidine-2,4-diones useful for inhibition of farnesyl-protein transferase” (Wyeth Holdings Corporation, priority 2001, dated 2004).
pIC50: −log10 of the molar value.

Assays:
FPTase (K-Ras substrate) = FPTase (K-Ras substrate) (UniProt P29702+P49355); test: in vitro FTase Inhibition Assay, K-Ras as substrate for farnesylation; assay type: biochemical; details: K-Ras used as substrate for farnesylation
Summary of the method: (§1)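 His6-Ras substrate ([…]) with 10 ng FPTase in 50 mM Tris pH 7.5, ZnCl2, MgCl2, KCl, DTT, 0.2% octyl-β-glucoside, 1% DMSO; incubated 30-90 min. TCA/SDS-precipitated Ras filtered, 3H-FPP incorporation counted; % inhibition from background-corrected cpm versus no-compound control.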

FPTase (H-Ras substrate) = FPTase (H-Ras substrate) (UniProt P29702+P49355); test: in vitro FTase Inhibition Assay, H-Ras as substrate for farnesylation; assay type: biochemical; details: H-Ras used as substrate for farnesylation
Summary of the method: as §1

[1] = tested on: K-ras dependent human colon carcinoma (LoVo); test: In vivo effects against K-ras dependent human colon carcinoma (LoVo); details: rats; for S/T = No. Survivors/No.Treated: Day +35 post tumor cell implantation
Experimental: Compounds of this invention were tested for in vivo effects in rats against various tumors. For the compound of Example 114, when tested against a K-ras dependent human colon carcinoma (LoVo), the following results were obtained (Table II): […]

COc1ccc(S(=O)(=O)C2(CCCC#Cc3cc(Cl)ccc3Cl)SC(=O)NC2=O)cc1 (centres unmarked) [Example 114, 5-[5-(2,5-Dichloro-phenyl)pent-4-ynyl]-5-(4-methoxy-benzenesulfonyl)-thiazolidine-2,4-dione]
pIC50 (FPTase (K-Ras substrate)): 6.49 to 7.49 | pIC50 (FPTase (H-Ras substrate)): 7.49 to 7.89 | Mean Tumor Weight ([1]; Day 8, 75* mg/kg IP, BID days 1-20, prepared in 2% Tween 80 in D5W, vs 2% Tween in D5W): 86 mg | % T/C ([1]; Day 15, 75* mg/kg IP, BID days 1-20, prepared in 2% Tween 80 in D5W, vs 2% Tween in D5W): 150% | S/T = No. Survivors/No.Treated ([1]; 50 mg/kg IP, BID days 1-20, Methocel/Tween 80 series): 5/10 | S/T = No. Survivors/No.Treated ([1]; 75 mg/kg IP, BID days 1-20, Methocel/Tween 80 series): 8/10 | S/T = No. Survivors/No.Treated ([1]; 100 mg/kg IP, once a day days 1-20, Methocel/Tween 80 series): 9/10 | S/T = No. Survivors/No.Treated ([1]; 100 mg/kg PO, BID days 1-20, 20% BCD in 0.1 N HCl series): 9/10
